The values that follow are results of earlier work, collected in patent US8497290B2, “Thiocolchicine derivatives, method of making and methods of use thereof” (priority 2009, dated 2013).

Each structure is given as a SMILES string.

This data set relates to rat model. The note with it: metabolites of thiocolchicoside, compared with thiocolchicoside.

Take `COc1c(O[C@@H]2O[C@H](C(=O)O)[C@@H](O)[C@H](O)[C@H]2O)cc2c(c1OC)-c1ccc(SC)c(=O)cc1[C@@H](NC(C)=O)CC2` [3-O-glucuronidated aglycone derivative, (7S)-7-(acetylamino)-5,6,7,9-tetrahydro-1,2-dimethoxy-10-(methylthio)-9-oxobenzo[a]heptalen-3-yl β-D-glucopyranosiduronic acid]: the muscle relaxant activity entry is listed as “muscle relaxant activity similar to that of thiocolchicoside”.
